Earlier results, collected in patent publication US9629386B2, “Nutrition composition” (AJINOMOTO CO., INC., priority 2008, dated 2017).

System: CRP and nutrition condition
Settings: 1.2 g to 11 dialysis patients for 12 weeks

For ω-3 fatty acid, the CRP is listed as “did not decrease CRP” and the nutrition condition is listed as “did not improve nutrition condition”.
